Measurements reported in patent publication US20250049036A1 (priority 2021, published 2025).

Key:
[1] = tested on: Corynespora cassiicola; experiment: Corynespora cassiicola test on tomato, preventive, greenhouse; type: in vivo; conditions: 500 ppm; preventive spray on tomato, inoculated one day after treatment
Procedure: The respective compound was dissolved in 2% dimethyl sulfoxide/acetone and then mixed with water containing an emulsifier to the calibrated spray volume of 30 mL. Each spray solution was poured into a spray bottle for further application.
To test the preventive activity of a compound, healthy young tomato plants, raised in the greenhouse, were sprayed with the active compound preparation at the stated application rate inside the spray cabinets using hollow cone nozzles. One day after treatment, the plants were inoculated with a spore suspension containing 2.6×10^6 Corynespora cassiicola inoculum. The inoculated plants were then kept in a greenhouse chamber at 22-24° C. temperature and 90-95% relative humidity for disease expression.
(§1) A visual assessment of the compound's performance was carried out by rating the disease severity (0 100% scale) on treated plants 3, 7, 10 and 15 days after application. Efficacy (% control) of the compound was calculated by comparing the disease rating in the treatment with the one of the untreated control. The treated plants were also assessed for plant damage by recording symptoms like necrosis, chlorosis and stunting.

[2] = tested on: Phytophthora infestans; experiment: whole plant or invertebrate; type: in vivo, Phytophthora infestans on tomato; conditions: in Solanum lycopersicum, read-out: control (efficacy, disease severity) compared to the untreated check
[3] = tested on: Venturia Inequalis; experiment: Venturia inequalis (VENTIN) spore growth inhibition in liquid medium, 96-well microtiter plate, OD 600; type: cell-based; conditions: spore suspension in PDB liquid medium, 18° C., 15-18 days, OD at 600, read-out: control compared to the untreated check
Outline: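 Venturia inequalis spores (10^5 spores/ml suspension) were grown in potato dextrose broth with test compounds dissolved in DMSO, mixing equal volumes of compound solution and spore suspension. Plates were incubated at 18 °C for 15–18 days. Growth was read as OD600 and converted to percent inhibition.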

[4] = tested on: Pyricularia oryzae; experiment: microbe, parasite or virus in culture; type: cell-based; conditions: 168 h, read-out: control compared to the untreated check
[5] = tested on: Fusarium culmorum; experiment: Fusarium culmorum test on wheat, preventive, greenhouse; type: in vivo; conditions: preventive spray on wheat, inoculated one day after treatment, read-out: control (efficacy, disease severity) compared to the untreated check
Procedure: The respective compound was dissolved in 2% dimethyl sulfoxide/acetone and then mixed with water containing an emulsifier to a calibrated spray volume of 30 mL. Each spray solution was poured into a spray bottle for further application.
To test the preventive activity of a compound, healthy young wheat plants, raised in the greenhouse, were sprayed with the active compound preparation at the stated application rate inside the spray cabinets using hollow cone nozzles. One day after the treatment, the plants were inoculated with a spore suspension containing 2×10^6 Fusarium culmorum inoculum. The inoculated plants were then kept in a greenhouse chamber at 24° C. temperature and 80-90% relative humidity for disease expression.
as §1

[6] = tested on: Phakopsora pachyrhizi; experiment: Phakopsora pachyrhizi test on soybean, preventive, greenhouse; type: in vivo; conditions: preventive spray on soybean, inoculated one day after treatment, read-out: control (efficacy, disease severity) compared to the untreated check
Outline: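 Preventive protocol: plants inoculated with a 2×10^5 P. pachyrhizi conidial suspension one day after spray application at the stated rate, then incubated at 22-24 °C and 80-90% RH. Compound was applied from 2% DMSO/acetone diluted in emulsified water.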

CC(c1ccccc1F)C(C)(C)NC(=O)c1cnc2c(c1)c(Cl)cn2C (stereo not drawn) [Compound 64, 3-chloro-N-(3-(2-fluorophenyl)-2-methylbutan-2-yl)-1-methyl-1H-pyrrolo[2,3-b]pyridine-5-carboxamide]
≥ 70%: control (efficacy, disease severity) compared to the untreated check [1] | pest or weed control at 500 ppm [2] | inhibition of growth at 300 ppm [3] | inhibition of growth at 300 ppm [4] | pest or weed control at 500 ppm [5] | pest or weed control at 500 ppm [6]
